This is an account of results in article PMC9234964, “Design, Synthesis, and Biological Evaluation of a Novel Series of 4-Guanidinobenzoate Derivatives as Enteropeptidase Inhibitors with Low Systemic Exposure for the Treatment of Obesity” (Journal of Medicinal Chemistry, 2022).

A short description of data set [1]: Aqueous stability at pH 1.2/6.8. The note with it: 24 h; for stability at pH 1.2 (% decomposed): pH 1.2, 37 °C; for stability at pH 6.8 (% decomposed): pH 6.8, 37 °C. The class given is physicochemical. How it is done: Sample solutions in pH 1.2/6.8 media (first/second fluids for the disintegration test in the Japanese Pharmacopoeia 17th edition, including 10% dimethyl sulfoxide if needed, 10 μg/mL) were prepared for the compounds and incubated at 37 °C. The sample solutions were measured initially and at 24 h using HPLC, and peak analysis was conducted. Residual contents (%) of the compounds in pH 1.2/6.8 media at 37 °C after 24 h of incubation of the initial solutions were calculated using the peak areas.

The target in data set [2] is T1, human enteropeptidase (Homo sapiens, UniProt P98073).
T1 construct: purchased ITSI-Biosciences, LLC #REN-260
T1 sequence (P98073 whole entry): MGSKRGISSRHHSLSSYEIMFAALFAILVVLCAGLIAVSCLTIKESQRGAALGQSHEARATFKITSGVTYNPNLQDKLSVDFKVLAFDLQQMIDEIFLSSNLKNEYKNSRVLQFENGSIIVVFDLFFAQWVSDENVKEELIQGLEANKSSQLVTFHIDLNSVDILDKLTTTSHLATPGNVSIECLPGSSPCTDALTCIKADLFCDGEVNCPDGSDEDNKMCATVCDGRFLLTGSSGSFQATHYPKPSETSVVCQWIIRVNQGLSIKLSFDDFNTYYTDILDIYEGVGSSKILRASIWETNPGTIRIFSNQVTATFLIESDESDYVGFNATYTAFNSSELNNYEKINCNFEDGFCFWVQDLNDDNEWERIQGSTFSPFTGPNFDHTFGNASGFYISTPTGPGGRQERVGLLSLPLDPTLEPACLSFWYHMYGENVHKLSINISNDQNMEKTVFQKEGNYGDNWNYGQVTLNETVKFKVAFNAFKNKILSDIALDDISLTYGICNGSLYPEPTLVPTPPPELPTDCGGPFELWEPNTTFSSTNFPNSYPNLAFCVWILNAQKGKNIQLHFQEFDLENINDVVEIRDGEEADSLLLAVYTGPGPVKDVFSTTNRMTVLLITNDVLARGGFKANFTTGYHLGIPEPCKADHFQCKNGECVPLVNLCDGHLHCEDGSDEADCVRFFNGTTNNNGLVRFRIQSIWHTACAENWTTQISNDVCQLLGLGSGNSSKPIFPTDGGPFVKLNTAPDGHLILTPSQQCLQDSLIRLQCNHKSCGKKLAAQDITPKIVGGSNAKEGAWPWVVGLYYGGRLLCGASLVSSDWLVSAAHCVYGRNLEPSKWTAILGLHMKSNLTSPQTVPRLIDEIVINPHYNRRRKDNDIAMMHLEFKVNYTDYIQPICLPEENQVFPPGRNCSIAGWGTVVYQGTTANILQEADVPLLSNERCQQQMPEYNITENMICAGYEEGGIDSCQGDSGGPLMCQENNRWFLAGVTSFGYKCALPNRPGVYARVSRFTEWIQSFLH
Briefly: Dissociation assay (recovery of active enzyme after rapid dilution). The note with it: rapid dilution after 2 h preincubation of compound and enzyme. The class given is biochemical. The text has this:
Although not all reaction constants for 1c could be identified, the in vitro IC50 value could be used as an indicator of the combination of k1, k–1, and k2. In this case, the IC50 value of a compound is derived from its affinity for enteropeptidase (k1 and k–1) and its reactivity against enteropeptidase (k2). […] As the affinity of a compound for enteropeptidase is expected to largely contribute to the IC50 value based on initial velocities (IC50(initial)) relative to the IC50 value based on the steady state (IC50(app)), we performed chemical modifications based on IC50(initial). […] Because T1/2 can be an indicator of k3, we focused on compounds with low IC50(initial) values and long T1/2 values.
For dissociation assay, compounds were dissolved in DMSO and then diluted in assay buffer (50 mM Tricine pH 8.0, 0.01(w/v)% Tween20, 10 mM CaCl2). 10 μL of compound solution was added in 96-well plate (corning), and then, 10 μL of 100 mU/mL human recombinant enteropeptidase (ITSI-Biosciences) solution was added into the plate and incubated at room temperature for 2 h. […] After incubation, 2 μL of the compound-enzyme mixture was transferred to a 96-well black plate (Corning) and 200 μL of substrate solution (3 μM 5FAM–Abu–[…]CPQ2)–Lys–Lys–NH2 (CPC Scientific)) was added into the well. By rapid dilution, the inhibitor concentration went to 10-fold below the IC50 from 10-fold above the IC50. The fluorescence was measured each 2 min at excitation wavelength 485 nm and emission wavelength 535 nm by EnVision (Perkin Elmer). The progress curves were fitted to following equation to determine the values for koff and dissociation half-life T1/2 according to the following equations. [drawing 4] 1 where t is time and F is fluorescence from initial rate vo to steady state rate vs. [drawing 5] 2

Data set [3] is described as follows: Kinetic aqueous solubility at pH 1.2/6.8. The note with it: aqueous medium, kinetic from dmso stock. The class given is physicochemical.
Data set [4] in a line: Plasma exposure of 2a in mice (oral and subcutaneous). The note with it: male, mouse, read-out: AUC0-24h. The class given is in vivo.
Data set [5] concerns the target T1, human enteropeptidase. Briefly: Human enteropeptidase enzyme assay. It counts as biochemical. The settings on record: for IC50: substrate and compound at room temperature, 95% confidence intervals in parentheses. Here is the method: Human recombinant enteropeptidase (#REN-260, ITSI-Biosciences, LLC) was diluted with an assay buffer (50 mM tricine (pH 8.0), 0.01(w/v)% Tween 20, 10 mM CaCl2) to prepare a 24 mU/mL enzyme solution. Subsequently, 5FAM–Abu–[…]CPQ2)–Lys–Lys–NH2 (purity: 97.2%, CPC Scientific, Inc.) was diluted with an assay buffer to prepare a 2.1 μM substrate solution. Compounds were dissolved in DMSO and then diluted in the assay buffer. The compound solution (5 μL/well) and the substrate solution (5 μL/well) were added to a 384-well black plate (#784076, Greiner Bio-One) and mixed. Then, the enzyme solution (5 μL/well) was added to the plate and mixed to start the reaction. The fluorescence intensity was measured at an excitation wavelength of 485 nm and a fluorescence wavelength of 535 nm using a fluorescence plate reader EnVision (PerkinElmer Inc.). Also, the same reaction as above was performed except that the test compound was not added (test compound non-supplemented group). In addition, the same reaction as above was performed except that neither the test compound nor the enzyme was added (control group).
(§1) Inhibition rate (%) = (1 – (fluorescence intensity of the test compound supplemented group – fluorescence intensity of the control group)/(fluorescence intensity of the test compound non-supplemented group – fluorescence intensity of the control group)) × 100.

A short description of data set [6]: PAMPA (parallel artificial membrane permeability assay). The settings on record: PAMPA. It counts as in vitro ADME. On the technique in general: The PAMPA barrier holds no transporters, so it reflects passive diffusion.
The next data set has as its system High-Fat-Diet-Fed Mice. The data set is described as follows: Increase in fecal protein output in high-fat-diet-fed mice. The class given is in vivo, mouse. The note with it: for fecal protein output (fold of 2a): oral. Here is the method:
A high-fat diet (HFD)-fed mouse (D12079B diet, male, 14–21 weeks old) was used for the in vivo assay. For compound screening, mice were orally administered with either the test compound (10 mg/kg) or 0.5% methylcellulose (MC) as a vehicle control. For the assessment of efficacy by systemic exposure of the compound, mice were subcutaneously administered with compound 2a (10 mg/kg) or saline as a vehicle control and compared with those administered oral treatment (60 mg/kg). Doses were selected to achieve equivalent systemic exposure as the area under the curve over 24 h based on pharmacokinetic data of both oral and subcutaneous administration. Whole feces were collected overnight, and the fecal protein output was evaluated as described previously.[33]

The test system of data set [7] is Human Multi-drug Resistance 1 (MDR-1) Expressing Cells. The data set is described as follows: Membrane permeability with MDR1-expressing cells (A to B). The class given is in vitro ADME. The note with it: apical to basolateral, 10 μmol/L, 2 h. Here is the method:
The transcellular transport study was performed as reported previously.[40] In brief, the cells were grown in a HTS transwell 96 well permeable support (pore size 0.4 μm, 0.143 cm^2 surface area) with a polyethylene terephthalate membrane (Corning Life Sciences, Lowell, MA, USA) at a density of 1.125 × 10^5 cells/well. The cells were preincubated with M199 at 37 °C for 30 min. Subsequently, transcellular transport was initiated by the addition of M199 to apical compartments containing 10 μmol/L test compounds and terminated by the removal of each assay plate after 2 h. The aliquots in the opposite compartments were subjected to be measured for compound concentration by LC–MS/MS. Permeability was calculated using the permeated compound concentration.

Another data set has as its system DIO rats. The data set is described as follows: Anti-obesity effects in male DIO rats (repeated dosing, 4 weeks). It counts as in vivo, rat. The note with it: oral, 6b 1, 3 and 10 mg/kg; for body weight change / food intake: (S)-5b 10 mg/kg; for fecal protein output: day 28, (S)-5b 10 mg/kg. How it is done:
Six-week-old male DIO F344/Jcl rats were obtained from CLEA Japan (Tokyo, Japan) and fed with a HFD D12451 (45 kcal % fat, 20 kcal % protein, and 35 kcal % carbohydrate; Research Diets, Inc.). The study involved six groups of rats (n = 6): vehicle (0.5% MC), 6b (1, 3, and 10 mg/kg), (S)-5b (SCO-792) (10 mg/kg), and sibutramine (1 mg/kg). […] were orally administered with either the vehicle or compounds starting at 36 weeks of age for 4 weeks. The body weight was monitored every 1–4 days for 4 weeks. The change in body weight is presented as a percentage of the initial body weight. Feces were collected on day 28 and evaluated for pharmacodynamic markers.

Another data set has as its target rat enteropeptidase (Rattus norvegicus, UniProt A0ABK0LTS6). Briefly: Rat enteropeptidase enzyme assay. It counts as biochemical. How it is done: The rat enteropeptidase catalytic subunit (aa 818-1057, GenBank accession no. XM_017597944) was cloned into the BglII-NotI site of the pET32a vector (Millipore). The active rat enteropeptidase catalytic subunit was obtained as described previously.[36] The rat recombinant enteropeptidase was diluted with an assay buffer (50 mM Tricine (pH 8.0), 0.01(w/v)% Tween 20, 10 mM CaCl2) to prepare a 2.4 ng/mL enzyme solution. Subsequently, 5FAM–Abu–[…]CPQ2)–Lys–Lys–NH2 (purity: 97.2%, CPC Scientific, Inc.) was diluted with an assay buffer to prepare a 5.4 μM substrate solution. Compounds were dissolved in DMSO and then diluted in the assay buffer. The compound solution (5 μL/well) and the substrate solution (5 μL/well) were added to a 384-well black plate (#784076, Greiner Bio-One) and mixed. Then, the enzyme solution (5 μL/well) was added to the plate and mixed to start the reaction. The fluorescence intensity was measured at an excitation wavelength of 485 nm and a fluorescence wavelength of 535 nm using a fluorescence plate reader EnVision (PerkinElmer Inc.). […]
as §1

The nature of a further data set: Pharmacokinetics in rats. The class given is in vivo, rat. Here is the method:
[…] After administration, blood samples were collected and centrifuged to obtain plasma specimens. The compound concentrations in the plasma were measured using LC–MS/MS.

In a further data set the test system is DIO mice. The settings on record: cited from earlier work.
The next data set relates to enteropeptidase. Also noted: method as in PMID 33033171. The settings on record: cited from earlier work.
[8] abbreviates: 6 min incubation of enzyme, read-out: Human enteropeptidase IC50(initial).
Where [9] appears, read: 120 min incubation of enzyme, read-out: Human enteropeptidase IC50(app).

Read-outs that look alike come from different tables or passages of the source. Bounds are passed on as bounds.

rat enteropeptidase, sequence (A0ABK0LTS6 829-1068): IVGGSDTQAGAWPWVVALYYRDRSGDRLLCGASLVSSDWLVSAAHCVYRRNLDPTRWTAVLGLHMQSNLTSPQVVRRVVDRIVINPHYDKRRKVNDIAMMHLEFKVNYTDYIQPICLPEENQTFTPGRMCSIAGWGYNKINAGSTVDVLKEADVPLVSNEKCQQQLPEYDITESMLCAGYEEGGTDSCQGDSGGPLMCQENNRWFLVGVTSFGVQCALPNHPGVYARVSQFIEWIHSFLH

On to `Cl.N=C(N)Nc1ccc(C(=O)Oc2ccc(CC(=O)N[C@@H](CC(=O)O)C(=O)O)cc2)cc1` [2a, N-({4-[(4-Carbamimidamidobenzoyl)oxy]phenyl}acetyl)-L-aspartic Acid Hydrochloride], for which, in [1], the “stability at pH 1.2 (% decomposed)” value amounted to 2.5 % decomposed. For the same compound, in [1], the “stability at pH 6.8 (% decomposed)” value was 5.0 % decomposed. The “T1/2, half-time of dissociation from human enteropeptidase” value at human enteropeptidase [2] was greater than 2 h. Moreover, the kinetic solubility – broadly, the concentration staying in solution when a stock, usually in DMSO, is diluted into the medium – in [3] (pH 1.2, simulated gastric fluid, read-out: Kinetic aqueous solubility at pH 1.2) is 76 µg/mL; in data set [3] (pH 6.8, aqueous buffer, read-out: Kinetic aqueous solubility at pH 6.8), greater than 97 µg/mL. Also, the AUC(0-t) at 24 h worked out at 9820 ± 3740 ng·h/mL in data set [4] (oral, 60 mg/kg) and 16000 ± 2640 ng·h/mL in data set [4] (sc, subcutaneous, 10 mg/kg). The “fold enhancement in IC50(initial) relative to 1c” value on human enteropeptidase [5] (6 min, glycine replaced with aspartic acid) is reported as “five-fold”. For the same compound, the IC50 (as a rule, the point on the concentration scale where inhibition reaches its midpoint) is 94 nM at human enteropeptidase [5] (setting [8]) and 5.9 nM on human enteropeptidase [5] (setting [9]). The Papp is 0.2 ×10⁻⁶ cm/s in data set [6] (pH 7.4, read-out: PAMPA at pH 7.4) and 0.1 ×10⁻⁶ cm/s in data set [6] (pH 5.0, read-out: PAMPA at pH 5.0). Moreover, the “fecal protein output (fold of 2a)” value with High-Fat-Diet-Fed Mice (10 mg/kg) is “(1.00) fold of 2a”. In addition, in the data set on High-Fat-Diet-Fed Mice (oral administration, 60 mg/kg), the “fecal protein content vs vehicle” value is given as “significant increase”. Moreover, in the data set with High-Fat-Diet-Fed Mice (subcutaneous administration, 10 mg/kg), the “fecal protein levels vs vehicle” value is “did not increase”. Also, the “MDR1 (A to B)” value in [7] was 0 nm/s.

`N=C(N)Nc1ccc(C(=O)Oc2cccc(C3=NO[C@](CC(=O)O)(C(=O)O)C3)c2)cc1` [6b, (5R)-3-{3-[(4-Carbamimidamidobenzoyl)oxy]phenyl}-5-(carboxymethyl)-4,5-dihydro-1,2-oxazole-5-carboxylic Acid]: the melting point – broadly, the temperature of the solid-liquid transition – was 199 °C (dec.). Besides, in data set [1], the “stability at pH 1.2 (% decomposed)” value was determined as 1.1 % decomposed and the “stability at pH 6.8 (% decomposed)” value amounted to 7.3 % decomposed. In the data set with DIO rats, the body weight change entry is given as “potent body weight loss in a dose-dependent manner”, the food intake result is listed as “significant reduction” and the fecal protein output result is recorded as “significant increase”. The half-maximal inhibitory concentration (IC50) on human enteropeptidase [5] (setting [8]) is 20 nM. Besides, the IC50 on human enteropeptidase [5] (setting [9]) came to 1.2 nM. Besides, the IC50 at rat enteropeptidase (120 min, supplement csv, unit inferred, read-out: rat enteropeptidase IC50 (120 min)) is 1.5 nM. Also, the “PK in rats, plasma concentration” value in “Pharmacokinetics in rats” (1 mg/kg p.o., below the lower limit of quantitation) is given as less than 1 ng/mL. Besides, in the data set on High-Fat-Diet-Fed Mice (10 mg/kg), the “fecal protein output (fold of 2a)” value was 1.29 fold of 2a. Besides, the “MDR1 (A to B)” value in data set [7] worked out at 0 nm/s.

Turning to `N=C(N)Nc1ccc(C(=O)Oc2ccc3c(c2)OC[C@H]3CC(=O)N[C@@H](CC(=O)O)C(=O)O)cc1.O` [(S)-5b, N-({(3S)-6-[(4-Carbamimidamidobenzoyl)oxy]-2,3-dihydro-1-benzofuran-3-yl}acetyl)-L-aspartic Acid Hydrate], in data set [1], the “stability at pH 1.2 (% decomposed)” value was 0.2 % decomposed and the “stability at pH 6.8 (% decomposed)” value is 4.4 % decomposed. Also, the body weight result in the data set with DIO mice was “potent body weight reduction”. In the data set on DIO rats, the body weight change result was “body weight loss”, the food intake entry was “reduction” and the fecal protein output result is given as “significant elevation”. Further, at human enteropeptidase [5] (setting [8]), the IC50 was determined as 68 nM. At rat enteropeptidase, this compound had an IC50 of 4.6 nM. Moreover, the “PK in rats BA” value in “Pharmacokinetics in rats” (10 mg/kg p.o. and 0.2 mg/kg i.v.) amounted to 0.4%. Besides, the “fecal protein output (fold of 2a)” value in the data set on High-Fat-Diet-Fed Mice (10 mg/kg) is recorded as 1.28 fold of 2a. The “MDR1 (A to B)” value in [7] was 0 nm/s.

Consider `CN(C)C(=O)COC(=O)Cc1ccc(OC(=O)c2ccc(NC(=N)N)cc2)cc1` [camostat], for which the body weight result in the data set on DIO mice is “induced body weight loss”. Also, the enteropeptidase activity entry with enteropeptidase is reported as “inhibited enteropeptidase activity”.
